Square brackets hold non-standard residues; d marks the D form. Peptide text beside a SMILES is read from it.
Tests used:
[1] = Peptide stability analysis in human serum (HPLC); type: in vitro ADME; conditions: for half-life at 1 mg/mL: pH 7.4, human serum
Description: (§1) Serum was separated by centrifugation (tabletop centrifuge, 3000 rpm, 20 min) of blood obtained from a healthy person. The serum was filtrated using a filter (Millipore) with a pore size of […], and then 50 μl of the human serum was mixed with 100 μg of RLYE (SEQ ID NO: 2), R(D)LYE (SEQ ID NO: 6), RLYE-NH2 (SEQ ID NO: 3) or Ac-RLYE (SEQ ID NO: 1) (100 μg/50 PBS, pH 7.4), and incubated by time at a constant temperature of 37° C. A peptide concentration of the sample was calculated by a peak area after the sample was separated by C18 reverse phase high-performance liquid chromatography (HPLC; Vydac protein and peptide C18 column, 0.1% trifluoroacetate in H2O for equilibration, and 0.1% trifluoroacetate in acetonitrile for elution).

[2] = test system: human umbilical cord vascular endothelial cells (HUVECs); type: cell-based
Description: Migration analysis for human umbilical cord vascular endothelial cells (HUVECs) was carried out using a Transwell culture plate to which a polycarbonate filter (pore size: 8 μm) with a diameter of 6.5 mm was attached. A surface of the filter was coated with 10 μg of gelatin. Fresh M199 medium (1% fetal bovine serum) containing VEGF (10 ng/ml) was added into a lower compartment of the Transwell plate, HUVECs (1×10^6 cells/100 μl) which had reacted with 0.15 nM or 1.5 nM peptides at room temperature for 30 minutes were carefully transferred to an upper compartment of the plate. The resulting HUVECs were cultured in a CO2-constant temperature and humidity chamber for 4 hours, and the cells migrated under the Transwell filter were stained by H&E staining and quantified using an optical microscope.

HUVECs = experiment: Tube formation of vascular endothelial cells on Matrigel (VEGF-induced); type: cell-based, human
Description: A degree of tube formation of HUVECs was determined using growth factor-reduced Matrigel. 250 μl of the Matrigel (10 mg protein/ml) was added into a 24-well plate to allow polymerization for 30 minutes at 37° C. HUVECs cultured in M199 (1% fetal bovine serum) medium for 6 hours were carefully transferred onto the Matrigel in the culture plate at a density of 2×10^5 cells/well, and VEGF (10 ng/ml) were cultured alone or with peptides (0.15 nM) at 37° C. for 20 hours. Meanwhile, peptides that were reacted in PBS or fresh human serum for 3 hours were also used. The degree of tube formation of HUVECs was visualized using an inverted phase-contrast microscope, and a length of the formed tube was measured and quantified by Image-Pro Plus version 4.5 (Media Cybernetics, San Diego, Calif.).

HCT116 xenograft = experiment: Human colon cancer (HCT116) xenografted mouse model, tumor size and growth; type: in vivo
Description: Human colon cancer cells (HCT116, 1×10^7 cells/100 μl) were subcutaneously injected into the left side of a nude mouse (BALB/c nu/nu, 6 week old, male), and then when a tumor volume reached at least 50 to 70 mm^3 (approx. 7 days), physiological saline (negative control), RLYE (SEQ ID NO: 2) (1.0 mg/kg), R(D)LYE (SEQ ID NO: 6) (1.0 mg/kg) or Ac-RLYE (SEQ ID NO: 1) (1.0 mg/kg; abnormal, experimental group) was intraperitoneally injected once a day. A VEGF neutralizing antibody, bevacizumab, was intraperitoneally injected at 2 mg/kg twice a week (positive control). A tumor size was two-dimensionally measured using calipers. A tumor volume (mm^3) was calculated by the formula: width^2×length×0.52.

[3] = test system: tumor vessels of HCT116 xenograft; experiment: Measurement of tumor angiogenesis (FITC-isolectin B4 staining); type: in vivo, mouse; conditions: FITC-isolectin B4 staining of tumor tissue
Description: Tumor tissue was fixed with 10% formalin, and inserted into paraffin. A slide was prepared using a tumor tissue section, immersed in xylene to remove paraffin, and rehydrated by stepwise treatment with 100%, 95%, 80%, and 70% ethanol. Afterward, the slide was washed with deionized water several times at room temperature. To inhibit the intracellular activity of a peroxidase, the tissue section was reacted in 0.3% hydrogen peroxide-containing methanol for 15 minutes, and washed with PBS three times. The tissue section was reacted in 3% goat serum-containing PBS for 2 hours at room temperature, and reacted with FITC-isolectin B4 ([…]; Vector Laboratories) for 1 hour. The tissue section was washed with PBS three times and then a permanent slide was prepared using a cryo-mount solution (OCT mouting medium, Tissue Tek, Sakura Finetek), and then tumor vessels were visualized using a fluorescence microscope.

[4] = test system: choroidal neovascularization; experiment: Laser-induced choroidal neovascularization mouse model; type: in vivo
Description: To prepare a laser-induced choroidal neovascularization animal model, a Bruch membrane between a retinal layer and a choroidal layer was destroyed by irradiating the mouse retina with a diode laser at an intensity of 400 mW and a duration of 50 ms, and then choroidal neovascularization occurred over 14 days. The retinas of 6 week-old male C57BL/6 mice were irradiated with a laser under the above conditions, the formation of a lesion was confirmed through a safety inspection on day 10, and 1 μl of a 1.5 mM EYLR (SEQ ID NO: 5), RLYE (SEQ ID NO: 2) or Ac-RLYE (SEQ ID NO: 1) solution was intravitreally injected. Here, the same amount of saline was injected into the control group. After 4 days (14 days after the laser irradiation), an experiment for analyzing a therapeutic effect was carried out by extracting the eyeballs of the mice. The extracted eyeballs were fixed in 4% paraformaldehyde for 12 hours, and embedded in paraffin. Sections with a thickness of 4 μm were prepared from paraffin tissue, and subjected to H&E staining. Afterward, an image of a section with the largest choroidal neovascular membrane area was taken from each subject, and the area of the choroidal neovascular membrane was quantitatively analyzed using ImageJ program (NIH, Bethesda, Md., USA). In the saline-injected control group, the average of the choroidal neovascular areas was represented as 100%, and a therapeutic effect of each treatment group was analyzed. Meanwhile, 1 ml (1.25 mg) of FITC-dextran (250 kDa) was injected into the left ventricle one hour before extraction of the mouse eyeball to allow systemic perfusion. After extraction, the eyeball was fixed in 4% paraformaldehyde for 1 hour. Then, the cornea and the crystalline lens were cut off by scissors, the retina was carefully removed using forceps to prepare a complex of retina pigment epithelium/choroid/sclera tissues. The retina flat-mounted complex tissue was observed under a fluorescence microscope and photographed.

retinal vascular leakage = experiment: Streptozotocin (STZ)-induced diabetic retinopathy mouse model, retinal vascular leakage; type: in vivo; conditions: STZ diabetic mice
Description: A freshly prepared STZ solution (100 mM) in a citrate buffer (100 mM, pH 4.5) was intraperitoneally injected at 150 mg/kg into the mice, and to prevent hypoglycemic shock, 10% sucrose was sufficiently provided. After two days, blood glucose was measured using an Accu-Chek Performa blood glucose meter (Roche Diagnostics GmbH, Germany), and when non-fasting blood glucose within 1 to 2 weeks was maintained at 300 mg/dl or more, the mice were used as diabetic animal models. The diabetes-induced mice were anesthetized with 2% avertin, and 1 μl of a 1.5 mM EYLR (SEQ ID NO: 5), RLYE (SEQ ID NO: 2) or Ac-RLYE (SEQ ID NO: 1) solution was intravitreally injected. Here, the same amount of PBS was injected into the control group. The peptide was injected, and after 24 hours, 1 ml (1.25 mg) of FITC-dextran (250 kDa) was injected into the left ventricle of each mouse to allow circulation for approximately 5 minutes. The mice were euthanized by cervical dislocation, and the eyeballs were extracted and fixed in 4% paraformaldehyde at room temperature for 1 hour. The retina was isolated from the fixed eyeball to prepare a retinal flat mount, and vascular leakage was observed under a confocal microscope. Meanwhile, the fluorescence of FITC-dextran leaked from retinal vessels was measured using Fluoview software.

Peptide stability in PBS = type: physicochemical; conditions: incubated in PBS at 37° C.
Description: as §1
To evaluate RLYE (SEQ ID NO: 2) stability, an RLYE peptide (SEQ ID NO: 2) was added to each of PBS and human serum, and incubated by time at a constant temperature of 37° C.

[5] = 1 μl of 1.5 mM solution intravitreal, H&E area analysis

CC(=O)N[C@@H](CCCNC(=N)N)C(=O)N[C@@H](CC(C)C)C(=O)N[C@@H](Cc1ccc(O)cc1)C(=O)N[C@@H](CCC(=O)O)C(=O)O [Ac-RLYE] (Ac-RLYE-OH; C-terminus assumed)
half-life at 1 mg/mL ([1]; 37° C.): 8.8 h
IC50 [2]: 0.05 nM
inhibition of VEGF-induced tube formation (HUVECs; peptides pretreated with PBS for 3 hours): effectively inhibited
inhibition of VEGF-induced tube formation (HUVECs; peptides pretreated with human serum for three hours): effectively inhibited
anticancer effect compared with RLYE (HCT116 xenograft; 1.0 mg/kg/day intraperitoneal, HCT116 nude mouse): higher than that of RLYE
effect on size and growth of tumor (HCT116 xenograft; 1.0 mg/kg/day intraperitoneal, once a day, HCT116 nude mouse): inhibited the size and growth of a tumor
anticancer effect compared with bevacizumab (HCT116 xenograft; peptide 1.0 mg/kg/day i.p., bevacizumab 2.0 mg/kg twice a week): a little lower than that of the positive control bevacizumab
effect of inhibiting cancer angiogenesis compared with RLYE [3]: higher than that of RLYE
choroidal neovascularization inhibition compared with RLYE [4, 5]: highly effective compared to RLYE
effect on choroidal neovascularization [4, 5]: effectively reduced
choroidal neovascularization inhibition compared with RLYE, retinal flat mount ([4]; FITC-dextran, retinal flat mount technique): higher effect of inhibiting choroidal neovascularization than RLYE
effect on retinal vascular leakage (retinal vascular leakage; 1 μl of 1.5 mM solution intravitreal, 24 hours): effectively inhibited
inhibitory effect on retinal vascular leakage compared with RLYE (retinal vascular leakage; intravitreal): higher inhibitory effect on blood vascular leakage than RLYE

CC(C)C[C@H](NC(=O)[C@@H](N)CCCNC(=N)N)C(=O)N[C@@H](Cc1ccc(O)cc1)C(=O)N[C@@H](CCC(=O)O)C(=O)O [RLYE, Arg-Leu-Tyr-Glu, reference compound] (H-RLYE-OH; N-terminus and C-terminus assumed)
RLYE degradation induced by albumin ([1]; albumin added, 37° C.): did not induce
RLYE degradation by human serum with bestatin ([1]; aminopeptidase B inhibitor bestatin added): effectively inhibited
half-life at 1 mg/mL ([1]; 37° C.): 1.2 h
degradation in PBS (Peptide stability in PBS): did not occur
IC50 [2]: 0.08 nM

CC(C)C[C@H](NC(=O)[C@H](N)CCCNC(=N)N)C(=O)N[C@@H](Cc1ccc(O)cc1)C(=O)N[C@@H](CCC(=O)O)C(=O)O [R(D)LYE] (H-[dR]LYE-OH; N-terminus and C-terminus assumed)
half-life at 1 mg/mL ([1]; 37° C.): 7 h
IC50 [2]: 0.06 nM

EYLR: reverse-sequence of the RLYE peptide [reference compound]
effect on choroidal neovascularization [4, 5]: had no change

CC(C)C[C@H](NC(=O)[C@@H](N)CCCNC(=N)N)C(=O)N[C@@H](Cc1ccc(O)cc1)C(=O)N[C@@H](CCC(=O)O)C(N)=O [RLYE-NH2] (H-RLYE-NH2; N-terminus assumed)
half-life at 1 mg/mL ([1]; 37° C.): 1.3 h
IC50 [2]: 0.11 nM

CC(=O)N[C@@H](CCCNC(=N)N)C(=O)N[C@@H](CC(C)C)C(=O)N[C@@H](Cc1ccc(O)cc1)C(=O)N[C@@H](CCC(=O)O)C(N)=O [Ac-RLYE-NH2] (Ac-RLYE-NH2)
IC50 [2]: 80.2 nM

Reference: patent US11702449B2, “Angiogenesis-inhibiting peptide and composition for preventing and treating angiogenesis-related disease comprising same as active ingredient” (AVIXGEN INC., priority 2015, dated 2023)
